Here are results for 21 molecules from patent publication US9169254B2, “Spiroimidazolone derivative” (Chugai Seiyaku Kabushiki Kaisha, priority 2009, dated 2015).

Each structure is given as a SMILES string.

The experiment concerns the target T1, human PTH1 receptor (Homo sapiens, UniProt Q03431).
T1 sequence (Q03431 27-593): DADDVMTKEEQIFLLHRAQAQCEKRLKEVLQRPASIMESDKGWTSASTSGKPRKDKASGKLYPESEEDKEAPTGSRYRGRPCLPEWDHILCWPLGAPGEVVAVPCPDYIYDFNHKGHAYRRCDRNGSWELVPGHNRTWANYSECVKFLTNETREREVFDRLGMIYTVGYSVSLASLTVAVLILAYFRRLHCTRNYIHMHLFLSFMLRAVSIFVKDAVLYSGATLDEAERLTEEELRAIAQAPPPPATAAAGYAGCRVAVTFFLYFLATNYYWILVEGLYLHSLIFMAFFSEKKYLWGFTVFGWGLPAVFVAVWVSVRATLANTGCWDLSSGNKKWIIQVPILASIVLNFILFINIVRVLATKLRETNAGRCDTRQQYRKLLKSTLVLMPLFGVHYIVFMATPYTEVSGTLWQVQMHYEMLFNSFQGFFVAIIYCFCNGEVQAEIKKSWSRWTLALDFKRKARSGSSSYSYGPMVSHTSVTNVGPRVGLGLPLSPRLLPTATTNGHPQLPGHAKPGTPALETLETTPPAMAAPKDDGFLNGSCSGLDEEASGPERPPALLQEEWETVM
Nature of the experiment: In vitro cAMP signal activity in HKRK-B7 cells (LLC-PK1 cells overexpressing the human PTH1 receptor). Format: cell-based. The settings on record: HKRK-B7 cells; compound at 1×10^−3 M; cAMP produced as percentage of that produced by hPTH(1-34) at 100 nM.
Turning to `Cc1cc(N(C)C(N)=O)cc(C)c1CCS(=O)(=O)N1CCC2(CC1)N=C(C1CCC(CCC(F)(F)F)CC1)NC2=O` (stereo not drawn) [Compound 696, 1-[3,5-Dimethyl-4-(2-{4-oxo-2-[4-(3,3,3-trifluoro-propyl)-cyclohexyl]-1,3,8-triaza-spiro[4.5]dec-1-ene-8-sulfonyl}-ethyl)-phenyl]-1-methyl-urea], the “cAMP production activity (%)” value is 132%. On to `Cc1cc(OC[C@H](O)CO)cc(C)c1/C=C/S(=O)(=O)N1CCC2(CC1)N=C(C1CCC(CCC(F)(F)F)CC1)NC2=O` (stereo partly drawn) [Compound 697, 8-{(E)-2-[4-((R)-2,3-Dihydroxy-propoxy)-2,6-dimethyl-phenyl]-ethenesulfonyl}-2-[4-(3,3,3-trifluoro-propyl)-cyclohexyl]-1,3,8-triaza-spiro[4.5]dec-1-en-4-one], for which the “cAMP production activity (%)” value is 60%.

As to `Cc1cc(OCCOC[C@H](O)CO)cc(C)c1/C=C/S(=O)(=O)N1CCC2(CC1)N=C(C1CCC(CCC(F)(F)F)CC1)NC2=O` (stereo partly drawn) [Compound 698, 8-((E)-2-{4-[2-((R)-2,3-dihydroxy-propoxy)-ethoxy]-2,6-dimethyl-phenyl}-ethenesulfonyl)-2-[4-(3,3,3-trifluoro-propyl)-cyclohexyl]-1,3,8-triaza-spiro[4.5]dec-1-en-4-one], the “cAMP production activity (%)” value came to 62%.

Turning to `CC(=O)N(CCOCCO)c1cc(C)c(/C=C/S(=O)(=O)N2CCC3(CC2)N=C(C2CCC(CCC(F)(F)F)CC2)NC3=O)c(C)c1` (stereo not drawn) [Compound 699, N-[3,5-Dimethyl-4-((E)-2-{4-oxo-2-[4-(3,3,3-trifluoro-propyl)-cyclohexyl]-1,3,8-triaza-spiro[4.5]dec-1-ene-8-sulfonyl}-vinyl)-phenyl]-N-[2-(2-hydroxy-ethoxy)-ethyl]-acetamide], the “cAMP production activity (%)” value is given as 101%. Turning to `CCCCCCCCCC1=NC2(CCN(S(=O)(=O)/C=C/c3ccc(N(CCOCCO)C(C)=O)cc3C)CC2)C(=O)N1` [Compound 700, N-[2-(2-Hydroxy-ethoxy)-ethyl]-N-{3-methyl-4-[(E)-2-(2-nonyl-4-oxo-1,3,8-triaza-spiro[4.5]dec-1-ene-8-sulfonyl)-vinyl]-phenyl}-acetamide], the “cAMP production activity (%)” value turned out to be 121%. Regarding `CCCCCCCCCC1=NC2(CCN(S(=O)(=O)/C=C/c3c(C)cc(N(CCO)C(C)=O)cc3C)CC2)C(=O)N1` [Compound 701, N-{3,5-dimethyl-4-[(E)-2-(2-nonyl-4-oxo-1,3,8-triaza-spiro[4.5]dec-1-ene-8-sulfonyl)-vinyl]-phenyl}-N-(2-hydroxy-ethyl)-acetamide], the “cAMP production activity (%)” value is reported as 140%.

On to `O=C1NC(C2CCCCC2)=NC12CCN(S(=O)(=O)/C=C/c1ccc3c(ccn3C[C@H](O)CO)c1)CC2` [Compound 702, 2-Cyclohexyl-8-{(E)-2-[1-((S)-2,3-dihydroxy-propyl)-1H-indol-5-yl]-ethenesulfonyl}-1,3,8-triaza-spiro[4.5]dec-1-en-4-one], for which the “cAMP production activity (%)” value worked out at 84%.

Consider `O=C1NC(C2CCC(CCC(F)(F)F)CC2)=NC12CCN(S(=O)(=O)/C=C/c1cccc3c1ccn3CCOC[C@@H](O)CO)CC2` (stereo partly drawn) [Compound 704, 8-((E)-2-{1-[2-((S)-2,3-Dihydroxy-propoxy)-ethyl]-1H-indol-4-yl}-ethenesulfonyl)-2-[4-(3,3,3-trifluoro-propyl)-cyclohexyl]-1,3,8-triaza-spiro[4.5]dec-1-en-4-one], for which the “cAMP production activity (%)” value is 68%. Regarding `Cc1cc(OC[C@H](O)[C@@H](O)CO)cc(C)c1/C=C/S(=O)(=O)N1CCC2(CC1)N=C(C1CCC(CCC(F)(F)F)CC1)NC2=O` (stereo partly drawn) [Compound 705, 8-{(E)-2-[2,6-dimethyl-4-((2S,3S)-2,3,4-trihydroxy-butoxy)-phenyl]-ethenesulfonyl}-2-[4-(3,3,3-trifluoro-propyl)-cyclohexyl]-1,3,8-triaza-spiro[4.5]dec-1-en-4-one], the “cAMP production activity (%)” value stood at 76%. Turning to `O=C1NC(C2CCC(CCC(F)(F)F)CC2)=NC12CCN(S(=O)(=O)/C=C/c1cccc3c1ccn3CCOC[C@H](O)[C@@H](O)CO)CC2` (stereo partly drawn) [Compound 706, 2-[4-(3,3,3-trifluoro-propyl)-cyclohexyl]-8-((E)-2-{1-[2-((2S,3S)-2,3,4-trihydroxy-butoxy)-ethyl]-1H-indol-4-yl}-ethenesulfonyl)-1,3,8-triaza-spiro[4.5]dec-1-en-4-one], the “cAMP production activity (%)” value worked out at 90%. On to `CC(=O)N(C[C@H](O)CO)c1cc(C)c(/C=C/S(=O)(=O)N2CCC3(CC2)N=C(CCCCCCCCC(F)(F)F)NC3=O)c(C)c1` [Compound 707, N—((S)-2,3-Dihydroxy-propyl)-N-(3,5-dimethyl-4-{(E)-2-[4-oxo-2-(9,9,9-trifluoro-nonyl)-1,3,8-triaza-spiro[4.5]dec-1-ene-8-sulfonyl]-vinyl}-phenyl)-acetamide], for which the “cAMP production activity (%)” value amounted to 124%. In the case of `Cc1cc(CN(CCO)C(=O)OC(C)(C)C)ccc1/C=C/S(=O)(=O)N1CCC2(CC1)N=C(C1CCCCC1)NC2=O` [Compound 708, {4-[(E)-2-(2-Cyclohexyl-4-oxo-1,3,8-triaza-spiro[4.5]dec-1-ene-8-sulfonyl)-vinyl]-3-methyl-benzyl}-(2-hydroxy-ethyl)-carbamic acid tert-butyl ester], the “cAMP production activity (%)” value amounted to 38%. Then `CC(=O)N(c1cc(C)c(/C=C/S(=O)(=O)N2CCC3(CC2)N=C(C2CCCCC2)NC3=O)c(C)c1)C1CCC(O)CC1` (stereo not drawn) [Compound 709, N-{4-[(E)-2-(2-cyclohexyl-4-oxo-1,3,8-triaza-spiro[4.5]dec-1-ene-8-sulfonyl)-vinyl]-3,5-dimethyl-phenyl}-N-(4-hydroxy-cyclohexyl)-acetamide], with 58%; and `Cc1cc(N2C(=O)CC[C@@H]2COCCO)cc(C)c1/C=C/S(=O)(=O)N1CCC2(CC1)N=C(C1CCCCC1)NC2=O` [Compound 710, 2-cyclohexyl-8-((E)-2-{4-[(R)-2-(2-hydroxy-ethoxymethyl)-5-oxo-pyrrolidin-1-yl]-2,6-dimethyl-phenyl}-ethenesulfonyl)-1,3,8-triaza-spiro[4.5]dec-1-en-4-one], with 76%; and `Cc1cc(N(CCO)C(=O)C(C)C)ccc1/C=C/S(=O)(=O)N1CCC2(CC1)N=C(c1cccc(OC(F)(F)F)c1)NC2=O` [Compound 711, N-(2-Hydroxy-ethyl)-N-(3-methyl-4-{(E)-2-[4-oxo-2-(3-trifluoromethoxy-phenyl)-1,3,8-triaza-spiro[4.5]dec-1-ene-8-sulfonyl]-vinyl}-phenyl)-isobutylamide], with 64%.

`Cc1cc(N2C(=O)C(C)(C)C[C@@H]2CO)cc(C)c1/C=C/S(=O)(=O)N1CCC2(CC1)N=C(c1cccc(OC(F)(F)F)c1)NC2=O` [Compound 712, 8-{(E)-2-[4-((R)-5-hydroxymethyl-3,3-dimethyl-2-oxo-pyrrolidin-1-yl)-2,6-dimethyl-phenyl]-ethenesulfonyl}-2-(3-trifluoromethoxy-phenyl)-1,3,8-triaza-spiro[4.5]dec-1-en-4-one]: the “cAMP production activity (%)” value was determined as 16%. With `Cc1cc(N2C(=O)C(C)C[C@@H]2CO)cc(C)c1/C=C/S(=O)(=O)N1CCC2(CC1)N=C(c1cccc(OC(F)(F)F)c1)NC2=O` (stereo partly drawn) [Compound 713, 8-{(E)-2-[4-((R)-5-hydroxymethyl-3-methyl-2-oxo-pyrrolidin-1-yl)-2,6-dimethyl-phenyl]-ethenesulfonyl}-2-(3-trifluoromethoxy-phenyl)-1,3,8-triaza-spiro[4.5]dec-1-en-4-one], the “cAMP production activity (%)” value was 55%. Then `Cc1cc(N2C(=O)N(CCO)C(C)(C)C2=O)cc(C)c1/C=C/S(=O)(=O)N1CCC2(CC1)N=C(c1cccc(OC(F)(F)F)c1)NC2=O` [Compound 714, 3-(3,5-dimethyl-4-{(E)-2-[4-oxo-2-(3-trifluoromethoxy-phenyl)-1,3,8-triaza-spiro[4.5]dec-1-ene-8-sulfonyl]-vinyl}-phenyl)-1-(2-hydroxy-ethyl)-5,5-dimethyl-imidazolidine-2,4-dione], with 36%; and `Cc1cc(N(C2CCC(O)CC2)S(C)(=O)=O)cc(C)c1/C=C/S(=O)(=O)N1CCC2(CC1)N=C(c1cccc(OC(F)(F)F)c1)NC2=O` (stereo not drawn) [Compound 715, N-(3,5-dimethyl-4-{(E)-2-[4-oxo-2-(3-trifluoromethoxy-phenyl)-1,3,8-triaza-spiro[4.5]dec-1-ene-8-sulfonyl]-vinyl}-phenyl)-N-(4-hydroxy-cyclohexyl)-methane sulfonamide], with 20%.

Regarding `CCCCC1CCC(C2=NC3(CCN(S(=O)(=O)/C=C/c4c(C)cc(N(CCOCCO)C(C)=O)cc4C)CC3)C(=O)N2)CC1` (stereo not drawn) [Compound 716, N-(4-{(E)-2-[2-(4-Butyl-cyclohexyl)-4-oxo-1,3,8-triaza-spiro[4.5]dec-1-ene-8-sulfonyl]-vinyl}-3,5-dimethyl-phenyl)-N-[2-(2-hydroxy-ethoxy)-ethyl]-acetamide], the “cAMP production activity (%)” value is given as 62%. Turning to `CC(=O)N(CCO)c1cc(C)c(/C=C/S(=O)(=O)N2CCC3(CC2)N=C(c2cccc(OC(F)(F)F)c2)NC3=O)cc1F` [Compound 717, N-(2-Fluoro-5-methyl-4-{(E)-2-[4-oxo-2-(3-trifluoromethoxy-phenyl)-1,3,8-triaza-spiro[4.5]dec-1-ene-8-sulfonyl]-vinyl}-phenyl)-N-(2-hydroxy-ethyl)-acetamide], the “cAMP production activity (%)” value is 111%.
